Data reported in ChEMBL document CHEMBL1149076, “Sulfamides as novel histone deacetylase inhibitors” (Bioorg Med Chem Lett, 2009).
Active and inactive are the calls of the source. No cut-off for these calls is given here.

What was measured:
[1] = biological target: Histone deacetylase 2 (Homo sapiens) (UniProt Q92769); experiment: Inhibition of human recombinant C-terminal FLAG-tagged HDAC2 expressed in baculovirus by fluorimetry
Histone deacetylase 1 [2] = biological target: T1, Histone deacetylase 1 (Homo sapiens, UniProt Q13547); experiment: Inhibition of human recombinant C-terminal FLAG-tagged HDAC1 expressed in baculovirus by fluorimetry
[3] = biological target: T2, Protein deacetylase HDAC6 (Homo sapiens, UniProt Q9UBN7); experiment: Inhibition of human recombinant N-terminal histidine-tagged HDAC6 expressed in baculovirus by fluorimetry
T2 sequence (Q9UBN7 whole entry): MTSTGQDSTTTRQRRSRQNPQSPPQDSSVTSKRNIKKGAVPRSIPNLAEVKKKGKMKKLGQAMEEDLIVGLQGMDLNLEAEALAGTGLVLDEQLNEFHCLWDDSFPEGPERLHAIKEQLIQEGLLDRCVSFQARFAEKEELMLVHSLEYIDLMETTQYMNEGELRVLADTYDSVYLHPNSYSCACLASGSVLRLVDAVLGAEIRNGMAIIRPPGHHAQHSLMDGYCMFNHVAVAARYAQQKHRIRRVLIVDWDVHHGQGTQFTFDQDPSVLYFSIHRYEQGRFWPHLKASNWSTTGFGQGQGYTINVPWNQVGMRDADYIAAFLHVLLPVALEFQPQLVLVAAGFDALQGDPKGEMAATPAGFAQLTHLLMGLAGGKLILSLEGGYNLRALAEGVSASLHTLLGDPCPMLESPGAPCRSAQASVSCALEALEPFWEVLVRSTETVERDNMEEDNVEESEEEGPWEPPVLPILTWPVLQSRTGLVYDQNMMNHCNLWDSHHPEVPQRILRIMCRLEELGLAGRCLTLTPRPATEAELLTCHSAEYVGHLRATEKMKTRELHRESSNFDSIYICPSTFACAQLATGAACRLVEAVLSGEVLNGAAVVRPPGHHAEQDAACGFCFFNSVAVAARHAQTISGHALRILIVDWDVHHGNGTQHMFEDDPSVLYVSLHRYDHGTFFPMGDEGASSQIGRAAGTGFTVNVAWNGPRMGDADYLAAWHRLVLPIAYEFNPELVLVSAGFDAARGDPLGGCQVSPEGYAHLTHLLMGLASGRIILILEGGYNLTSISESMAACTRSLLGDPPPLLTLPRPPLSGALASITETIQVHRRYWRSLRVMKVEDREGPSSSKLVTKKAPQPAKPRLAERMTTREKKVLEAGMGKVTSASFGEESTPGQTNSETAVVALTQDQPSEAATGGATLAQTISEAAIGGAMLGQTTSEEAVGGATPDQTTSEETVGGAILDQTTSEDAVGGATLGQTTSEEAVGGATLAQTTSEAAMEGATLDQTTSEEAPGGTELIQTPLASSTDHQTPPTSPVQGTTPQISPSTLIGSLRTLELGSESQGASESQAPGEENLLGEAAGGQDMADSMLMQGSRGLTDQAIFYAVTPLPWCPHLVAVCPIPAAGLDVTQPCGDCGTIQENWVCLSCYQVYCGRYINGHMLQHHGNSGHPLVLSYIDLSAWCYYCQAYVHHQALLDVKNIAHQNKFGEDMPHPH

[4] = biological target: T3, Histone deacetylase 8 (Homo sapiens) (UniProt Q9BY41); experiment: Inhibition of human recombinant N-terminal histidine-tagged HDAC8 expressed in baculovirus by fluorimetry
T3 sequence (whole entry): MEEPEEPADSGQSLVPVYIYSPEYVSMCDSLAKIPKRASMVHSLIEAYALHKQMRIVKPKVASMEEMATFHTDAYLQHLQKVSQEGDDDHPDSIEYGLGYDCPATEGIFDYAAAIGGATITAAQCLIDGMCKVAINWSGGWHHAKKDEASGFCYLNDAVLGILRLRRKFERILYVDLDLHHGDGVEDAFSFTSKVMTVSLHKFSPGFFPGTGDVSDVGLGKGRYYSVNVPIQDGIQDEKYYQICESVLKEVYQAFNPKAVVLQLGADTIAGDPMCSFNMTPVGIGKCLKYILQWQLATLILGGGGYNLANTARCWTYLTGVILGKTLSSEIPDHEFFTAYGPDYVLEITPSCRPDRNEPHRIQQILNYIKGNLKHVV

[5] = biological target: Histone deacetylase 5 (Homo sapiens) (UniProt Q9UQL6); experiment: Inhibition of human recombinant N-terminal histidine-tagged HDAC5 expressed in baculovirus by fluorimetry
[6] = biological target: Histone deacetylase 4 (Homo sapiens) (UniProt P56524); experiment: Inhibition of human recombinant N-terminal histidine-tagged HDAC4 expressed in baculovirus by fluorimetry
[7] = biological target: Histone deacetylase 3 (Homo sapiens) (UniProt O15379); experiment: Inhibition of human recombinant C-terminal FLAG-tagged HDAC3 expressed in baculovirus by fluorimetry
[8] = biological target: T4, Histone deacetylase 7 (Homo sapiens) (UniProt Q8WUI4); experiment: Inhibition of human recombinant N-terminal histidine-tagged HDAC7 expressed in baculovirus by fluorimetry
T4 sequence (whole entry): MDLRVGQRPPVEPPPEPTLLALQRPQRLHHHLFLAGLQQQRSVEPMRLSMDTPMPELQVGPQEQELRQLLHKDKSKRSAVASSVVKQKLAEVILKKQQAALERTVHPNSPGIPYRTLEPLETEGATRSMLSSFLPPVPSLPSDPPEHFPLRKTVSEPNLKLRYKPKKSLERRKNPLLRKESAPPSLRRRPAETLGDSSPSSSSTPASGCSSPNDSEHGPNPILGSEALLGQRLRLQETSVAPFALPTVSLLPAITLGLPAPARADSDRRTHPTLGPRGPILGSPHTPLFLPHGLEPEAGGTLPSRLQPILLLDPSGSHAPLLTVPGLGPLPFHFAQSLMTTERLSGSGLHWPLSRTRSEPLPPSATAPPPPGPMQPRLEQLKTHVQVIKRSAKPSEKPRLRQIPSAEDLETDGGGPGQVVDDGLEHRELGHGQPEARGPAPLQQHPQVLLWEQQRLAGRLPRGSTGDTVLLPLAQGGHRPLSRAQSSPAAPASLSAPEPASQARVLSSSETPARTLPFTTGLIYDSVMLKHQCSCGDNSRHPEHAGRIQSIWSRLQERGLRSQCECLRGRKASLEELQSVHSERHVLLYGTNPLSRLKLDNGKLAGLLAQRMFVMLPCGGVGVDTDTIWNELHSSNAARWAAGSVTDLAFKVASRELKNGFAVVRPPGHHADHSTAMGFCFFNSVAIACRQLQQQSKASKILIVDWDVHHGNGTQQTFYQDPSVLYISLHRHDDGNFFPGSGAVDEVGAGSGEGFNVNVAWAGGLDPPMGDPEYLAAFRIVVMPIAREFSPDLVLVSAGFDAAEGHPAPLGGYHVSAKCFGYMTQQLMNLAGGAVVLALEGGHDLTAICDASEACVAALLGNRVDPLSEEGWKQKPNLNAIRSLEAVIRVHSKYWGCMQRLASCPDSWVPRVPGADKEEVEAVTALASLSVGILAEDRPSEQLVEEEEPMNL

Histone deacetylase 1 [9] = biological target: T1, Histone deacetylase 1; experiment: Inhibition of HDAC1 in human 293T cells after 16 hrs by fluorimetry; assay type: cell-based
T-24 [10] = experiment: Induction of alpha tubulin acetylation in human T24 cells after 3 hrs by ELISA; assay type: functional, cell-based; conditions: T-24, 3 h
T-24 [11] = experiment: Induction of histone H3 acetylation in human T24 cells after 3 hrs by ELISA; assay type: functional, cell-based; conditions: T-24, 3 h

Sequence of Histone deacetylase 4 (Homo sapiens) (P56524 whole entry): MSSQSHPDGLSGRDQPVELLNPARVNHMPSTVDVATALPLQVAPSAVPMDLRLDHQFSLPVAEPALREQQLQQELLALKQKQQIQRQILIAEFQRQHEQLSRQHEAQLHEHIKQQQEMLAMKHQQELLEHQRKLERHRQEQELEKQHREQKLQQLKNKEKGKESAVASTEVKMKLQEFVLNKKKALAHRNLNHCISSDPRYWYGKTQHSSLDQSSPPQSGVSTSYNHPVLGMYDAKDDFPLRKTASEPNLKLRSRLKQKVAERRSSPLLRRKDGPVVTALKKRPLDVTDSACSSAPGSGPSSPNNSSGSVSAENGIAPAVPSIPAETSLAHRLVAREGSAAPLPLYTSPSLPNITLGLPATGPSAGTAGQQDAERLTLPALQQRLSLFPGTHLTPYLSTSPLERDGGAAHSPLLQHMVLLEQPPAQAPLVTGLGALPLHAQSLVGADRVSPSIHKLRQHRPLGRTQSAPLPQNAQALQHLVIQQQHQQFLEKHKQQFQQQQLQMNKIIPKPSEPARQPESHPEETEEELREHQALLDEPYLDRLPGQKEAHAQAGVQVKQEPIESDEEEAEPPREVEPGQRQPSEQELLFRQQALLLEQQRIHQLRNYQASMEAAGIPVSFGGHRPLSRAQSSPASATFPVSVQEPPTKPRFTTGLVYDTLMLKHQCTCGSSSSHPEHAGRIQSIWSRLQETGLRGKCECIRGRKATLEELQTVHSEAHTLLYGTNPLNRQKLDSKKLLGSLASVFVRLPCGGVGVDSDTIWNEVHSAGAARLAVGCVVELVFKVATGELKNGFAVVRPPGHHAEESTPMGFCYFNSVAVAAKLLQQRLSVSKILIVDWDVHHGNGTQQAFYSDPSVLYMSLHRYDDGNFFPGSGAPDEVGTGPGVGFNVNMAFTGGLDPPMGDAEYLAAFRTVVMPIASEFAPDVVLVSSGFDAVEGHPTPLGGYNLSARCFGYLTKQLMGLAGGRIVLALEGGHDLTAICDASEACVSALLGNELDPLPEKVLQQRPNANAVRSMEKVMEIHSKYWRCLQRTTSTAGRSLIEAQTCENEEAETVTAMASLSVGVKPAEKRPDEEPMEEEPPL
Sequence of Histone deacetylase 5 (Homo sapiens) (Q9UQL6 whole entry): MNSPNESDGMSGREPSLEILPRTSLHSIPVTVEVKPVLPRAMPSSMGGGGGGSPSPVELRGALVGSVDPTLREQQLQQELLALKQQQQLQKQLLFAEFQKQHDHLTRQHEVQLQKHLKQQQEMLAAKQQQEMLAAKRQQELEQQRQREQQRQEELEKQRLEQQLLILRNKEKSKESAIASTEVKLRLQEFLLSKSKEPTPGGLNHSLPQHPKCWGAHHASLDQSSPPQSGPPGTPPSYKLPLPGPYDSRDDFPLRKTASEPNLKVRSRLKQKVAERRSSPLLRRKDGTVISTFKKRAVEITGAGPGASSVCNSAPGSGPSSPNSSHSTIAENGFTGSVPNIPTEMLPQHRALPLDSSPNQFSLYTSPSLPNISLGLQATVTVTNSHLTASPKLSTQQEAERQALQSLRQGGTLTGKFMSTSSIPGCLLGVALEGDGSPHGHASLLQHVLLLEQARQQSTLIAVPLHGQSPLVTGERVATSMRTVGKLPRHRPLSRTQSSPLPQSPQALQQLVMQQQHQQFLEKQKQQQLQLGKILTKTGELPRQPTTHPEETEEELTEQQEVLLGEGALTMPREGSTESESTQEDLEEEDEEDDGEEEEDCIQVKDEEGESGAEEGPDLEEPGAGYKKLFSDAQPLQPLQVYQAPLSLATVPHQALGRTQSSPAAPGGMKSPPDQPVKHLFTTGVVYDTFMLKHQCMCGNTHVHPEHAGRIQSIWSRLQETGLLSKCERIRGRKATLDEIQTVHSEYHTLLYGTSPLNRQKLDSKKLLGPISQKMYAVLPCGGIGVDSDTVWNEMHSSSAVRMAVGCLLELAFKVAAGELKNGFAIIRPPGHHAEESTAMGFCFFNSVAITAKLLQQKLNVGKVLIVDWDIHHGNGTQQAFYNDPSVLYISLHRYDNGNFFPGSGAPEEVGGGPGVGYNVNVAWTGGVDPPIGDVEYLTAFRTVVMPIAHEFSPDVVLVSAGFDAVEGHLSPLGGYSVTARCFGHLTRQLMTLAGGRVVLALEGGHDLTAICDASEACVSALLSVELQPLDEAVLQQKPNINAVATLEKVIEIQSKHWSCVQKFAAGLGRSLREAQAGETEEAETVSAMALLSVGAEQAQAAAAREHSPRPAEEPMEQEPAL
T1 sequence (Q13547 whole entry): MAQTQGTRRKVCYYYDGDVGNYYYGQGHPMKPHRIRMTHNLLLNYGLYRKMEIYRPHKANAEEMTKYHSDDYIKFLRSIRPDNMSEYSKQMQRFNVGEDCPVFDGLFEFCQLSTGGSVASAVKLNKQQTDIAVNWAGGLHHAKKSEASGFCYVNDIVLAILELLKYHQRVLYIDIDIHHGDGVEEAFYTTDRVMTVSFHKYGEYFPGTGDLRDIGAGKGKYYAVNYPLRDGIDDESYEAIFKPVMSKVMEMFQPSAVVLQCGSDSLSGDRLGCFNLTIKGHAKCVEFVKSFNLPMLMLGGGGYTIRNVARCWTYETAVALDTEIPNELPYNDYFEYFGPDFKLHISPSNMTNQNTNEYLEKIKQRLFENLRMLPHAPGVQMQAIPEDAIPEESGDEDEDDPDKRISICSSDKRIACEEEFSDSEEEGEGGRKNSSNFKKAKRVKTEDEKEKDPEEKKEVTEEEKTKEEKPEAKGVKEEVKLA
Sequence of Histone deacetylase 2 (Homo sapiens) (Q92769 whole entry): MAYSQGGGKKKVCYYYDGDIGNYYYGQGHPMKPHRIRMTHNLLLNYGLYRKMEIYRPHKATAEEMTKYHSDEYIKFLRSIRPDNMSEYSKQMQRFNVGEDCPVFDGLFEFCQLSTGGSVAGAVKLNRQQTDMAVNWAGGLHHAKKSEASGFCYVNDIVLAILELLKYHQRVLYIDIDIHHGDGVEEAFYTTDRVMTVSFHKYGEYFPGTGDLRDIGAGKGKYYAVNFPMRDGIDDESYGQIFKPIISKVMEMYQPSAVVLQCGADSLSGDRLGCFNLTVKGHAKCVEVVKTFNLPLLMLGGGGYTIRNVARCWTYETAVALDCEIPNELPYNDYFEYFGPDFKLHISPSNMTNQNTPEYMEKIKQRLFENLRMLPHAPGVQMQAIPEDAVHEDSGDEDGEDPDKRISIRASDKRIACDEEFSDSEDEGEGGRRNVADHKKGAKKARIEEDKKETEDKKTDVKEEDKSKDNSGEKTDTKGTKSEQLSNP
Sequence of Histone deacetylase 3 (Homo sapiens) (O15379 whole entry): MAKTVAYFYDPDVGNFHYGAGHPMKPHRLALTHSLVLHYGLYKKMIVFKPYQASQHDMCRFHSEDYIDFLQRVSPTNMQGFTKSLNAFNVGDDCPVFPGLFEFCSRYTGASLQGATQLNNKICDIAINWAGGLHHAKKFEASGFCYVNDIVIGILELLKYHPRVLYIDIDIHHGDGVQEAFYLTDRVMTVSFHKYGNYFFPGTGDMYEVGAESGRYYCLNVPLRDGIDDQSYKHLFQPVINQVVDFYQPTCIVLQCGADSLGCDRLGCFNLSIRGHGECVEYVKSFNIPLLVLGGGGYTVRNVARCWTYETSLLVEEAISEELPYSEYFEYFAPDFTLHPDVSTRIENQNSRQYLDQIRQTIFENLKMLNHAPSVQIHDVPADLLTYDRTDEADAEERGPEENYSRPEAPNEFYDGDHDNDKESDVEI

| Structure (SMILES) | Activity [1] | IC50 (Histone deacetylase 1 [2]) | IC50 [3] | Activity [4] | Activity [5] | Activity [6] | Activity [7] | Activity [8] | IC50 (Histone deacetylase 1 [9]) | EC50 (T-24 [10]) | EC50 (T-24 [11]) |
| --- | --- | --- | --- | --- | --- | --- | --- | --- | --- | --- | --- |
| NS(=O)(=O)NCCCCCC(=O)Nc1ccc2ncccc2c1 | inactive | > 10 µM | 0.49 µM | – | – | – | – | – | – | – | – |
| NS(=O)(=O)NCCCCCC(=O)Nc1cccc(-c2ccccc2)c1 | – | > 10 µM | 1.1 µM | inactive | inactive | inactive | inactive | inactive | – | – | – |
| Nc1ccccc1NC(=O)CCCCCCC(=O)Nc1cccc(-c2ccccc2)c1 | – | 0.49 µM | > 50 µM | – | – | – | – | – | – | – | – |
| NS(=O)(=O)NCCCCCC(=O)Nc1cccc2cccnc12 | inactive | > 10 µM | 0.39 µM | – | – | – | – | – | – | – | – |
| NS(=O)(=O)NCCCCCC(=O)Nc1cnc2ccccc2c1 | inactive | > 10 µM | 0.71 µM | – | – | – | – | – | – | – | – |
| COc1cc(NC(=O)[C@H](CCCCNS(N)(=O)=O)NC(=O)OCc2ccccc2)c2ncccc2c1 | – | 0.46 µM | 0.06 µM | – | – | – | – | – | 1.8 µM | 0.2 µM | 0.35 µM |
| COc1cc(NC(=O)CCCCCNS(N)(=O)=O)c2ncccc2c1 | inactive | > 10 µM | 0.44 µM | – | – | – | – | – | > 50 µM | 1 µM | > 25 µM |
| CN(C)S(=O)(=O)NCCCCCC(=O)Nc1cccc(-c2ccccc2)c1 | – | > 10 µM | > 10 µM | inactive | inactive | inactive | inactive | inactive | – | – | – |
| CNS(=O)(=O)NCCCCCC(=O)Nc1cccc(-c2ccccc2)c1 | – | > 10 µM | > 10 µM | inactive | inactive | inactive | inactive | inactive | – | – | – |
| NS(=O)(=O)NCCCCC(=O)Nc1cccc(-c2ccccc2)c1 | – | > 10 µM | > 10 µM | inactive | inactive | inactive | inactive | inactive | – | – | – |
| NS(=O)(=O)NCCCCCC(=O)Nc1ccccc1 | – | > 10 µM | 1.5 µM | – | – | – | – | – | – | – | – |
| NS(=O)(=O)NCCCCCCC(=O)Nc1cccc(-c2ccccc2)c1 | – | > 10 µM | > 10 µM | inactive | inactive | inactive | inactive | inactive | – | – | – |
| NS(=O)(=O)OCCCCCC(=O)Nc1cccc(-c2ccccc2)c1 | – | > 10 µM | > 10 µM | inactive | inactive | inactive | inactive | inactive | – | – | – |
| NS(=O)(=O)NC(=O)CCCCCC(=O)Nc1cccc(-c2ccccc2)c1 | – | > 10 µM | > 10 µM | inactive | inactive | inactive | inactive | inactive | – | – | – |
| NS(=O)(=O)NCCCCCC(=O)Nc1nc(-c2ccccc2)cs1 | inactive | > 10 µM | 0.9 µM | – | – | – | – | – | > 50 µM | 3.5 µM | 20 µM |
| O=C(CCCCCCC(=O)Nc1cccc(-c2ccccc2)c1)NO | – | 0.009 µM | 0.009 µM | – | – | – | – | – | – | – | – |
| CC(=O)NS(=O)(=O)NCCCCCC(=O)Nc1cccc(-c2ccccc2)c1 | – | > 10 µM | > 10 µM | inactive | inactive | inactive | inactive | inactive | – | – | – |
| CN(CCCCCC(=O)Nc1cccc(-c2ccccc2)c1)S(N)(=O)=O | – | > 10 µM | > 10 µM | inactive | inactive | inactive | inactive | inactive | – | – | – |
| NS(=O)(=O)NCCCC[C@H](NC(=O)OCc1ccccc1)C(=O)Nc1nc(-c2ccccc2)cs1 | – | 0.16 µM | 0.18 µM | – | – | – | – | – | 2.3 µM | 0.6 µM | 0.7 µM |
